Data as given in ChEMBL document CHEMBL1933022, “Synthetic studies of bi-fluorescence-labeled maltooligosaccharides as substrates for α-amylase on the basis of fluorescence resonance energy transfer (FRET)” (Bioorg Med Chem, 2012).
Activity calls are given as the source filed them. The rule behind the calls is not given here.

Biological target: T1, Alpha-amylase 1A (Homo sapiens) (UniProt P0DUB6)
T1 sequence (whole entry): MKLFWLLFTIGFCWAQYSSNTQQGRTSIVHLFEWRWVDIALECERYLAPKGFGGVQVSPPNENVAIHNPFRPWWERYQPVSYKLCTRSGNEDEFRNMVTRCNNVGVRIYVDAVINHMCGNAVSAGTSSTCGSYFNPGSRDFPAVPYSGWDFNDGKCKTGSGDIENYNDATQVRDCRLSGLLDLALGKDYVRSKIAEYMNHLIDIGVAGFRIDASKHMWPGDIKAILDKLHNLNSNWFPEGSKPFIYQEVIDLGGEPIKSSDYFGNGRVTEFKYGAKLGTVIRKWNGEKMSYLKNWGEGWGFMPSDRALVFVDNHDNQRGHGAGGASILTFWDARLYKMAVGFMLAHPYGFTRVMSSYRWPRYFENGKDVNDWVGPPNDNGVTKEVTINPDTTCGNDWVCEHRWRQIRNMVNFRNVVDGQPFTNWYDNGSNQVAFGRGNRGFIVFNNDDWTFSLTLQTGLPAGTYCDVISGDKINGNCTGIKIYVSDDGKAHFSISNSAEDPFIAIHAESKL
Test: Activity of human saliva alpha-amylase assessed as decrease in fluorescence intensity measured for every 3 mins for 30 mins by FRET analysis

Activity	SMILES
Active	CN(C)c1cccc2c(S(=O)(=O)NCCSCCCCCS[C@@H]3O[C@H](CO)[C@@H](O[C@H]4O[C@H](CO)[C@@H](O[C@H]5O[C@H](CO)[C@@H](O[C@H]6O[C@H](CO)[C@@H](O[C@H]7O[C@H](CO)[C@@H](O[C@H]8O[C@H](COCc9ccc%10ccccc%10c9)[C@@H](O)[C@H](O)[C@H]8O)[C@H](O)[C@H]7O)[C@H](O)[C@H]6O)[C@H](O)[C@H]5O)[C@H](O)[C@H]4O)[C@H](O)[C@H]3O)cccc12
inactive	CN(C)c1cccc2c(S(=O)(=O)NCCSCCCCCS[C@@H]3O[C@H](CO)[C@@H](O[C@H]4O[C@H](CO)[C@@H](O[C@H]5O[C@H](COCc6ccc7ccccc7c6)[C@@H](O)[C@H](O)[C@H]5O)[C@H](O)[C@H]4O)[C@H](O)[C@H]3O)cccc12
Active	CN(C)c1cccc2c(S(=O)(=O)NCCSCCCCCS[C@@H]3O[C@H](CO)[C@@H](O[C@H]4O[C@H](CO)[C@@H](O[C@H]5O[C@H](CO)[C@@H](O[C@H]6O[C@H](CO)[C@@H](O[C@H]7O[C@H](COCc8ccc9ccccc9c8)[C@@H](O)[C@H](O)[C@H]7O)[C@H](O)[C@H]6O)[C@H](O)[C@H]5O)[C@H](O)[C@H]4O)[C@H](O)[C@H]3O)cccc12

More lines, now with the values behind:

SMILES	Activity
CN(C)c1cccc2c(S(=O)(=O)NCCSCCCCCS[C@@H]3O[C@H](CO)[C@@H](O[C@H]4O[C@H](CO)[C@@H](O[C@H]5O[C@H](CO)[C@@H](O[C@H]6O[C@H](CO)[C@@H](O[C@H]7O[C@H](CO)[C@@H](O[C@H]8O[C@H](CO)[C@@H](O[C@H]9O[C@H](COCc%10ccc%11ccccc%11c%10)[C@@H](O)[C@H](O)[C@H]9O)[C@H](O)[C@H]8O)[C@H](O)[C@H]7O)[C@H](O)[C@H]6O)[C@H](O)[C@H]5O)[C@H](O)[C@H]4O)[C@H](O)[C@H]3O)cccc12	Active
CN(C)c1cccc2c(S(=O)(=O)NCCSCCCCCS[C@@H]3O[C@H](CO)[C@@H](O[C@H]4O[C@H](COCc5ccc6ccccc6c5)[C@@H](O)[C@H](O)[C@H]4O)[C@H](O)[C@H]3O)cccc12	inactive
CN(C)c1cccc2c(S(=O)(=O)NCCSCCCCCS[C@@H]3O[C@H](CO)[C@@H](O[C@H]4O[C@H](CO)[C@@H](O[C@H]5O[C@H](CO)[C@@H](O[C@H]6O[C@H](COCc7ccc8ccccc8c7)[C@@H](O)[C@H](O)[C@H]6O)[C@H](O)[C@H]5O)[C@H](O)[C@H]4O)[C@H](O)[C@H]3O)cccc12	Active
